Reference: patent publication US10463782B2, “Patient-based parameter generation systems for medical injection procedures” (BAYER HEALTHCARE LLC, priority 2006, dated 2019)

Assay: cardiovascular CTA (Siemens Sensation 64) contrast enhancement, generated protocol vs standard biphasic protocol
Type: in vivo, patients
Method: It was expected that left and right heart contrast enhancement would be more consistent across subjects using the cardiac protocol generation system/method of the present invention as compared to typical methods of establishing protocol parameters. To evaluate the level and consistency of enhancement, cardiac CE CT data from a pilot study were analyzed. Two anatomic regions of interest (the descending aorta and the right ventricle) were identified in each subject's scan (reconstructed at 60% RR interval) via a semi-automatic segmentation algorithm. For every set of axial slices acquired at a single time point, the mean enhancement within each of the regions was computed, yielding time enhancement curves. The influence of a per-patient, contrast injection protocol having a dilution phase on right heart enhancement during cardiac CTA was also studied. Sufficient enhancement for assessment of the right heart allows for the assessment of right heart pathology. […] Standard Errors in the other groups were: uni-phasic (+/−39 HU)), bi-phasic (+/−39 HU), and fixed dilution phase (+/−28 HU). […] Left Heart Enhancement averaged 325 HU+/−80
A study of 20 patients undergoing cardiovascular CTA (Siemens Sensation 64) using injection protocols generated using the system/method of the present invention (Iopimidol 370) and 19 control subjects with a standard biphasic protocol (Iopimidol 370 contrast volume=scan duration×5 ml/s, followed by a 40 ml saline flush) was made. All values of the time enhancement curves were pooled across subjects, and the two groups were compared via unpaired t-tests. The mean enhancements for the protocols generated by the present invention and the biphasic protocols were 357±69 HU and 323±64 HU, respectively (p=10^−8). The right ventricle mean enhancements were 318±85 HU and 212±96 HU (p=10^−21).

SMILES: C[C@H](O)C(=O)Nc1c(I)c(C(=O)NC(CO)CO)c(I)c(C(=O)NC(CO)CO)c1I [Iopimidol 370, Iopimidol]
- right ventricle mean enhancement (FIG. 35C) (protocols generated by the present invention, 20 patients): 318±85 HU
- mean enhancement (descending aorta, FIG. 35B) (protocols generated by the present invention, 20 patients, time enhancement curve values pooled across subjects): 357±69 HU
- mean enhancement (descending aorta, FIG. 35B) (standard biphasic protocol (contrast volume = scan duration x 5 ml/s, then 40 ml saline flush), 19 control subjects): 323±64 HU
- right ventricle mean enhancement (FIG. 35C) (standard biphasic protocol, 19 control subjects): 212±96 HU
